Patent US20110009351A1, “SCREENING ASSAY TO IDENTIFY CORRECTORS OF PROTEIN TRAFFICKING DEFECTS” (Traffick Therepeutics Inc., priority 2007, published 2011)
Counter-ions that a name gives are not always drawn. Like-named read-outs stand apart in the source and are kept apart here.

Key:
F508del CFTR = molecular target: T1, F508del CFTR (Homo sapiens, UniProt P13569, DEL508-508); assay: YFP fluorescence quenching functional assay (iodide influx), HEK293 cells with F508del CFTR and halide sensitive YFP; format: cell-based; details: for remaining activity at 10 µM: read-out: % YFP quench
T1 construct: expressed in transfected cells; host or cells: HEK293 Griptite cells stably expressing F508del CFTR, transiently transfected with halide-sensitive eYFP
T1 sequence (P13569 with tags, fused parts or gaps DEL508-508): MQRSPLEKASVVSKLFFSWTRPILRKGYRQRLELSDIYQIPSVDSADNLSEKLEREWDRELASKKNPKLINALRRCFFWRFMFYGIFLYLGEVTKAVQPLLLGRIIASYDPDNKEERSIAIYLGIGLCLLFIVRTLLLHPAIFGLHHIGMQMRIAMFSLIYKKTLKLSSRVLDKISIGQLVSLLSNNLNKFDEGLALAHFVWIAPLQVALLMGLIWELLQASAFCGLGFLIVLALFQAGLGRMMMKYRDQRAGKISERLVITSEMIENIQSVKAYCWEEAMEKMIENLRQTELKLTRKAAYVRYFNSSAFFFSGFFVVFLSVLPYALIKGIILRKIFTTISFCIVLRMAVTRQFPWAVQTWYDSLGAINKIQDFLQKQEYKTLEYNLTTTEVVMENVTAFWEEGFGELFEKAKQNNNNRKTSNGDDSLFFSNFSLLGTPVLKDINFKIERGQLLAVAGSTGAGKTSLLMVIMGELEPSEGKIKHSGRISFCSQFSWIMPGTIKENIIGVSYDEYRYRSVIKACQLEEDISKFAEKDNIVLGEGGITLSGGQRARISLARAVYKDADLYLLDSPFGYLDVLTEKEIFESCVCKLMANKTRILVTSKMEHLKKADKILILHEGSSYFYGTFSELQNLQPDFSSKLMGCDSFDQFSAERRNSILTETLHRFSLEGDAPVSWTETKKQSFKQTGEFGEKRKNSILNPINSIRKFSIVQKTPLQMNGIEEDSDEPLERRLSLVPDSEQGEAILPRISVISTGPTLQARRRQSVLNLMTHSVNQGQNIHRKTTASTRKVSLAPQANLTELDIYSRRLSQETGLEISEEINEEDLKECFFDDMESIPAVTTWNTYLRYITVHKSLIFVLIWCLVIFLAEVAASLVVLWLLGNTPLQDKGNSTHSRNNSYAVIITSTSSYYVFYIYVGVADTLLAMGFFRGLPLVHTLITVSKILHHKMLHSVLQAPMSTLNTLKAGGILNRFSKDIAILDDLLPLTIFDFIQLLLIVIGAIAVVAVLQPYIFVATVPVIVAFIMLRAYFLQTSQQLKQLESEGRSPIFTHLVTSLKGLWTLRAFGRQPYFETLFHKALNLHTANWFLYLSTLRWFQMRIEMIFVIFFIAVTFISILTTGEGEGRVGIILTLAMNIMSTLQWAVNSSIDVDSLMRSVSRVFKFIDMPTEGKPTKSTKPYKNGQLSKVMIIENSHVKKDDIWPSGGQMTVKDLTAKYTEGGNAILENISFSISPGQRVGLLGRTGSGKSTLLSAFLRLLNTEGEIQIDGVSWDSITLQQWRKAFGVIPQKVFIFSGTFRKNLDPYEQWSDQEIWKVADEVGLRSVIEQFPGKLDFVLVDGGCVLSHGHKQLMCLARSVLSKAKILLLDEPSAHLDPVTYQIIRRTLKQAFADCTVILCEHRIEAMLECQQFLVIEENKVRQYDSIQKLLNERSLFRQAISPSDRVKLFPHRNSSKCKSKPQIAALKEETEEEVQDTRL
Experimental: In addition to the MDS compounds, the 1120 Prestwick Library compounds were screened. (See FIGS. 7 to 12.) Of the compounds, one qualified as a “strong” hit, 3 as “medium” hits and 57 as “weak” hits. The Z score for the assay was 0.62. The top 50 hits were further tested in a counter screen in which the halide sensitive fluorescent compound (YFP) was expressed inside cells (Table 2). After incubation with the test compounds the ability of the cells to uptake iodide was measure by decreasing YFP fluorescence. In these cells this can only occur if functional CFTR is present at the cell surface (FIG. 7). The hits were also tested for the appearance of the Band C form of CFTR. […] The functionality of the compounds was further studied by the use of Iodide efflux assays for each compound in both BHK and the more physiologically relevant CFBE cells. […] FIG. 10 is a table of results for the 15 hit compounds which summarizes many experiments. […] The results for the best 15 compounds from the Prestwick Library, or “Prestwick 15”, are shown FIGS. 8, 9 and 10.
Strongly adhesive Human […] Kidney cells stably expressing both the human macrophage scavenger receptor (HEK293 Griptite, Invitrogen) and F508del CFTR were plated in 96-well plates and transiently transfected with pcDNA3 plasmid encoding a halide sensitive variant of eYFP. After 24-48 h later cells were exposed to 10 μM test compound in triplicate and incubated for an additional 24 h. Cells were stimulated for 20 minutes with a in a buffer containing 25 μM forskolin, 45 μM IBMX and 50 μM genistein final concentration. The high content screening assay was performed using a Cellomics platform. Iodide was added robotically to a final concentration of 50 mM and the resulting decrease in fluorescence was measured. Images were taken at time 0 and stored for subsequent use when calculating a mask so that only those cells that express YFP at time 0 are measured. The quenching was detected in 15 images taken over the course of an experiment lasting 40 seconds. Each test compound was compared to the following two controls: a negative control without drugs to assess photobleaching that may occur when the same field of view is repeatedly imaged, and a positive control with cells treated with a known potentiator. Results were generated from 150-300 cells per well.

ΔF508-CFTR = ΔF508-CFTR (Homo sapiens, UniProt P13569, DEL508-508); format: cell-based; set-up: which was then ligated into full length pNUT-CFTR linearized using Hpa1 and Pml1; expressed in transfected cells; details: for hit in screen (class letter): BHK cells
Sequence of ΔF508-CFTR (P13569 with tags, fused parts or gaps DEL508-508): as above
Experimental: BHK cells expressing 3HA-tagged ΔF508-CFTR between passages 5-8 were seeded in 96-well plates (Corning half area, black-sided, clear bottom) at 15,000 cells per well and incubated with culture medium for 24 h at 37° C. Each well was then treated with a different test compound (80 compounds per plate) for 24 h at 20 μM final concentration. The remaining 16 wells on each plate were used for control conditions. […] Cells were fixed in a 4% paraformaldehyde solution, washed with PBS, and blocked with PBS containing 5% fetal bovine serum (FBS) for 1 hat 4° C.
Blocking solution was replaced with 15 μl of primary antibody solution containing 1% FBS and mouse monoclonal anti-HA antibody (1:150 dilution, Sigma) in PBS. The plates were sealed and left at 4° C. overnight. After three washes with 100 μl PBS, cells were incubated for 1 h with 15 μl of secondary antibody solution containing 1% FBS and anti-mouse IgG conjugated with FITC (1:100 dilution, Sigma) in PBS. Cells were again washed three times with 100 μl of PBS and analyzed in a plate reader (Analyst™ HT96.384, Biosystems; 488 nm excitation/510 nm emission). […] The mean fluorescence of four untreated wells was used as the background signal when calculating deviations of the 80 compound-treated wells. Hits were then cherry-picked into reservoir plates and re-tested in duplicate using the same assay.
BHK cells expressing ΔF508-CFTR were incubated with test compounds (20 μM) for 24 hours at 37° C. in a 96 well format. Plasma membrane expression of ΔF508-CFTR was then assayed by immunofluorescence using a primary antibody directed against the inserted 3HA tag and a secondary antibody conjugated with a fluorophore (FITC). […] The positive compounds were selected and retested in duplicate to obtain an N of 3. At the re-screening stage, the intrinsic fluorescence of each potential hit was also measured and the fluorescent ones were not considered further.
Screening was performed using BHK cells that stably express F508-CFTR bearing three tandem haemagglutinin-epitope tags (3HA) and linker sequences in the fourth extracellular loop after amino acid 901 (Howard et al., 1995; Carlile et al., 2007; Robert et al., 2008). […] Screening was performed using the Prestwick Chemical Library of 1120 high-purity compounds.

[1] = Prestwick library, initial corrector assay
[2] = Prestwick library, initial corrector assay, standard deviations above untreated controls
[3] = HEK293, 10 μM, 24 h, nc = 100% pc = 69.2
[4] = 10 μM, 24 h, nc = 100% pc = 69.2

Compound	remaining activity at 10 µM (F508del CFTR; HEK293, 24 h)	hit in screen (class letter) (ΔF508-CFTR; [1])	hit in screen (score) (ΔF508-CFTR; [2])	remaining activity at 10 µM (F508del CFTR; [3])	% YFP quench (F508del CFTR; [4])	Bart's scores (F508del CFTR; Functional assay, Prestwick compounds, positive tests / tests)	hit in screen (score) (ΔF508-CFTR)	signal in the trafficking assay (ΔF508-CFTR)
CCN1C[C@]2(COC)CC[C@H](O)[C@@]34C5C[C@@H]6[C@@H](OC)C[C@](O)(C(CC23)C14)C5[C@H]6OC(C)=O (stereo partly shown) [Condelphine]	97%	W (Medium and weak hits were defined as compounds giving a cell fluorescence signal that was between 2 and 3 or 1 and 2 standard deviations, respectively, above untreated control wells)	1.6					
Clc1ccc(Cn2c(CN3CCCC3)nc3ccccc32)cc1 [Clemizole hydrochloride]		W (Medium and weak hits were defined as compounds giving a cell fluorescence signal that was between 2 and 3 or 1 and 2 standard deviations, respectively, above untreated control wells)	1.5	84%				
Cl.OC(CCN1CCCC1)(c1ccccc1)C1CCCCC1 (stereo not shown) [Procycildine hydrochloride]		W (Medium and weak hits were defined as compounds giving a cell fluorescence signal that was between 2 and 3 or 1 and 2 standard deviations, respectively, above untreated control wells)	1.1		92%			
COc1cc(C)nc(-n2nc(C)cc2OC)n1 [Epirizole]		W (Medium and weak hits were defined as compounds giving a cell fluorescence signal that was between 2 and 3 or 1 and 2 standard deviations, respectively, above untreated control wells)	1.3	115%		0/5		
O=C1CCC(N2C(=O)c3ccccc3C2=O)C(=O)N1 (stereo not shown) [Thalidomide]		M (Medium and weak hits were defined as compounds giving a cell fluorescence signal that was between 2 and 3 or 1 and 2 standard deviations, respectively, above untreated control wells)	2.0	92%				
CN(C)CCOC(=O)COc1ccc(Cl)cc1.Cl [Meciofenoxate hydrochloride]		W (Medium and weak hits were defined as compounds giving a cell fluorescence signal that was between 2 and 3 or 1 and 2 standard deviations, respectively, above untreated control wells)	1.1		877%			
CC(C(=O)O)c1ccc(-c2ccccc2)c(F)c1 (stereo not shown) [Flubiprofen]		W (Medium and weak hits were defined as compounds giving a cell fluorescence signal that was between 2 and 3 or 1 and 2 standard deviations, respectively, above untreated control wells)	1.0	98%				
C[C@@H]1CCC[C@H](C)N1NC(=O)c1ccc(Cl)c(S(N)(=O)=O)c1 [Clopamide]		W (Medium and weak hits were defined as compounds giving a cell fluorescence signal that was between 2 and 3 or 1 and 2 standard deviations, respectively, above untreated control wells)	1.1	79%				
C[C@]12C[C@H](O)[C@H]3[C@@H](CCC4=CC(=O)CC[C@@]43C)[C@@H]1CC[C@@H]2C(=O)CO [Corticosterone]		W (Medium and weak hits were defined as compounds giving a cell fluorescence signal that was between 2 and 3 or 1 and 2 standard deviations, respectively, above untreated control wells)	1.1	90%				
NC(=O)N1c2ccccc2C=Cc2ccccc21 [Carbamazenine]		W (Medium and weak hits were defined as compounds giving a cell fluorescence signal that was between 2 and 3 or 1 and 2 standard deviations, respectively, above untreated control wells)	1.1		86%			
c1ccc(CNc2ncnc3[nH]cnc23)cc1 [Aminopurine, 6-benzyl]		W (Medium and weak hits were defined as compounds giving a cell fluorescence signal that was between 2 and 3 or 1 and 2 standard deviations, respectively, above untreated control wells)	1.6		89%			
Nc1ccc(S(=O)(=O)c2ccc(N)cc2)cc1 [Dapsone]		W (Medium and weak hits were defined as compounds giving a cell fluorescence signal that was between 2 and 3 or 1 and 2 standard deviations, respectively, above untreated control wells)	1.1	88%				
C[C@]12CC[C@H](O)C[C@@H]1CC[C@@H]1[C@@H]2CC[C@]2(C)C(=O)CC[C@@H]12 [Epiandrosterone]	93%						W 1.0	consistently elevated signal
CCCCOc1ccc(OCCCN2CCOCC2)cc1 [Pramoxine hydrochloride]		W (Medium and weak hits were defined as compounds giving a cell fluorescence signal that was between 2 and 3 or 1 and 2 standard deviations, respectively, above untreated control wells)	1.2	89%				
c1ccc2c(c1)OCC(C1=NCCN1)O2 (stereo not shown) [Idazoxan hydrochloride]		W (Medium and weak hits were defined as compounds giving a cell fluorescence signal that was between 2 and 3 or 1 and 2 standard deviations, respectively, above untreated control wells)	1.0	103%				
CCOC(=O)n1ccn(C)c1=S [Carbimazole]		W (Medium and weak hits were defined as compounds giving a cell fluorescence signal that was between 2 and 3 or 1 and 2 standard deviations, respectively, above untreated control wells)	1.0	95%				
CC(C)(C(=O)c1cccnc1)c1cccnc1 [Metyrapone]		W (Medium and weak hits were defined as compounds giving a cell fluorescence signal that was between 2 and 3 or 1 and 2 standard deviations, respectively, above untreated control wells)	1.4	98%				
Oubinidine		W (Medium and weak hits were defined as compounds giving a cell fluorescence signal that was between 2 and 3 or 1 and 2 standard deviations, respectively, above untreated control wells)	1.2		104%			
CC1=CC(=O)C2=C(C)C[C@H](O)[C@@H]3[C@H](OC(=O)[C@H]3C)[C@H]12 [Austricine hydrate]		W (Medium and weak hits were defined as compounds giving a cell fluorescence signal that was between 2 and 3 or 1 and 2 standard deviations, respectively, above untreated control wells)	1.1	91%				
OCC(O)CN1CCN(c2ccccc2)CC1 (racemic) [Dropropizine (R, S)]		W (Medium and weak hits were defined as compounds giving a cell fluorescence signal that was between 2 and 3 or 1 and 2 standard deviations, respectively, above untreated control wells)	1.2		92%			
